The text below walks through data of patent US10959974B2, “Ingenol compounds and use thereof in anti-HIV latency treatment” (priority 2015, dated 2021).

Broadly, the EC50 is the concentration that produces a half-maximal response.

In brackets after ≈: the same amount, converted by molar mass. Read-outs that look alike come from different tables or passages of the source.

The subject of assay [1] is latent HIV in J-Lat-A10.6 cells. Description: Activation of latent HIV in J-Lat-A10.6 cells, GFP fluorescence / flow cytometry. Type of assay: cell-based, human. To be noted: 48 h. The protocol: (§1) The HIV latent cell model of the present invention comprises: a human T cell 10.6 clone strain carrying a green fluorescent protein gene (J-Lat-A10.6), which is provided by the National Institute of Health Research AIDS Reference Reagent Planning Department, established by Dr. Eric Verdin of the University of California.
(§2) The cells are small and the spherical cells are cultured in suspension. […]
(§3) J-Lat-A10.6 or C11 cells were seeded in 96-well plates at 2×10E4 cells per well, and 100 μl of 1640 medium (Gibco) containing 10% FBS (Gibco) was added to each well. After the cells were treated with the compounds in Examples 1-7 for 48 h, the green fluorescence expression of the cells was observed under a fluorescence microscope, the cells were collected for flow cytometry detection, and the proportion of fluorescent cells was analyzed.
(§4) J-Lat-A10.6 or C11 cells were seeded in 96-well plates at 2×10E4 cells per well, and 100 μl of 1640 medium (Gibco) containing 10% FBS (Gibco) was added to each well. After treatment with different concentrations of compounds (such as the compounds in Examples 1-7) and Prostratin for 48 h, the cells were collected for flow cytometry detection and the proportion of fluorescent cells was analyzed.
(In general: Flow cytometry measures light scatter and fluorescence of single cells or particles in a stream.)

The subject of assay [2] is latent HIV in C11 cells. Description: Activation of latent HIV in C11 cells, GFP fluorescence / flow cytometry. Type of assay: cell-based. The following applies: for EC50: read-out: EC50 of activation of latent HIV-1. The method, then: The cells are small and the spherical cells are cultured in suspension. Human T cell Jurkat […] cells are transfected by the retroviral vector carrying the green fluorescent protein gene HIV-R7/E-/GFP and sorted (Jordan A, Bisgrove D, Verdin E. HIV reproducibly establishes a latent infection after acute infection EMBO J 22:1868-1877, 2003); another established HIV latent screening model C11 clone is obtained by the twice of the sorting and activation on HIV lentivirus-infected T cells. (Chinese patent: 200810038851. X).
as §3, §4

Assay [3] relates to cells in the known HIV-infected latent reservoir. Description: Treatment of cells of the HIV-infected latent reservoir with compound, then antiretroviral drugs. Type of assay: cell-based. To be noted: compound treatment followed by antiretroviral drugs, versus untreated viral latent reservoir.
The subject of assay [4] is latent HIV in J-Lat-A10.6 or C11 cells. Kind of assay: Activation of HIV expression in latent cells, flow cytometry of green fluorescent cells (cell line not given). The class given is cell-based, human. To be noted: treated 48 h. The method, then:
as §1, §2, §3, §4

Assay [5] relates to resting CD4+ T cells isolated from the peripheral blood of AIDS patients. Description: Activation of latent HIV in peripheral blood resting CD4+ T cells of AIDS patients, real-time PCR of HIV-1 mRNA. Type of assay: cell-based, human. To be noted: 0.005 μM, 18 h; compared with control and 5 μg/ml PHA treated cells. The protocol: The resting CD4+ T cells isolated from the peripheral blood of 5 AIDS patients were treated with 5 μg/ml PHA (phytohemagglutinin) (positive control) and 0.005 μM compound 16A for 18 h, and then HIV-1 mRNA was extracted from resting CD4+ T cells and the medium, real-time PCR was used to detect the change of HIV-1 mRNA expression level in resting CD4+ T cells and medium, respectively.
(Quantitative PCR measures a nucleic acid by following its amplification.)

`CC(=O)O[C@@]12C[C@@H](C)[C@@]3(O)[C@@H](C=C(CO)C[C@]4(O)C(=O)C(C)=C[C@@H]34)[C@@H]1C2(C)C` [Prostratin, reference compound]: the EC50 in assay [1] (Homo sapiens, flow cytometry, read-out: EC50 of activation of latent HIV-1) was 860 nM; in assay [2] (Human immunodeficiency virus 1, 48 h), 760 nM.

With `CCCCCCCCCCCC(=O)O[C@@]12C[C@@H](C)[C@]34C=C(C)[C@H](OC(=O)C(C)C(C)C)[C@@]3(O)[C@H](O)C(CO)=C[C@H](C4=O)[C@@H]1C2(C)C` (stereo partly drawn) [Example 1, 3-O-(2,3-dimethylbutanoyl)-13-O-dodecanoyl ingenol], in assay [3], the “number of viral latent reservoir” value is listed as “significantly lower”. The “proportion of green fluorescent positive cells” value in assay [1] (10 nM, background about 1-2%) was 90%; in assay [2] (10 nM, 48 h, C11 cells), around 80%. The EC50 in assay [4] (flow cytometry, J-Lat-A10.6 or C11 cells (not specified for Table 1)) stood at 2.6 ng/mL (≈ 4.03 nM); in assay [2] (C11 cells, 48 h, flow cytometry), 3.53 nM. For the same molecule, the activation rate in assay [4] (proportion of fluorescent cells, J-Lat-A10.6 or C11 cells (not specified), untreated control 2%) amounted to 93%. Also, the “intracellular activated HIV-mRNA” value in assay [5] is “significantly higher”.
